Experimental data as given in patent US9567318B2, “Substituted pyrimidine compounds and uses thereof” (Memorial Sloan-Kettering Cancer Center, priority 2009, dated 2017).

Columns and labels:
[1] = tested on: SKBr3 HER2+ breast cancer cells; assay: Growth Inhibition Assay (Alamar blue), SKBr3; type: cell-based, human
Description: (§1) The IC50 values listed for some of these compounds illustrate the antiproliferative effects of the subject compounds and were obtained using the Growth Inhibition assays described herein.
(§2) Growth Inhibition Assay. Antiproliferative effects of inhibitors were evaluated using the dye Alamar blue. This reagent offers a rapid objective measure of cell viability in cell culture, and it uses the indicator dye resazurin to measure the metabolic capacity of cells, an indicator of cell viability. Briefly, cells were plated on Costar 96-well plates. For attached cells (such as SKBr3, MDA-MB-468, LNCaP, MRCS), 8,000 cells/well were used. For suspension cells (such as MOLM-13, Kasumi-1, OCI-Ly7, PBL), 20,000 cells/well were plated. Cells were allowed to incubate for 24 h at 37° C. before drug treatment. Drugs were added in triplicates at the indicated concentrations, and the plate was incubated for 72 h. Alamar Blue (440 μM) was added, and the plate read 6 h later using the Analyst GT (Fluorescence intensity mode, excitation 530 nm, emission 580 nm, with 560=dichroic mirror). Results were analyzed using the Softmax Pro software. The percentage cell growth inhibition was calculated by comparing fluorescence readings obtained from treated versus control cells, accounting for initial cell population (time zero).

[2] = tested on: Kasumi-1 acute myeloid leukemia cells; assay: Growth Inhibition Assay (Alamar blue), Kasumi-1; type: cell-based, human; settings: Kasumi-1 cells
Description: as §1, §2

| SMILES | IC50 ([1]; Homo sapiens, SK-BR-3, 72 h) [µM] | IC50 ([2]; Homo sapiens, Kasumi 1, 72 h) [µM] | IC50 ([1]; 72 h) [µM] | IC50 ([2]; 72 h) [µM] |
| --- | --- | --- | --- | --- |
| C=CC(=O)Nc1cccc(Sc2c(OC)nc(N3CCOCC3)nc2OC)c1 [PDP3, N-(3-(4,6-dimethoxy-2-morpholinopyrimidin-5-ylthio)phenyl)acrylamide] | 16.5 | 11.4 |  |  |
| C=C(C)C(=O)Nc1cccc(Sc2c(OC)nc(N3CCN(C)CC3)nc2OC)c1 [YK132, N-(3-(4,6-dimethoxy-2-(4-methylpiperazin-1-yl)pyrimidin-5-ylthio)phenyl)methacrylamideN-(3-(4,6-dimethoxy-2-(4-methylpiperazin-1-yl)pyrimidin-5-ylthio)phenyl)methacrylamide] |  |  | 17.8 | 7.7 |
| COc1nc(N2CCN(C)CC2)nc(OC)c1Sc1cccc(N)c1 [YK133, 3-(4,6-dimethoxy-2-(4-methylpiperazin-1-yl)pyrimidin-5-ylthio)aniline] | 37.3 | 30.5 |  | 25.4 |
| C/C=C/C(=O)Nc1cccc(Sc2c(OC)nc(N3CCN(C)CC3)nc2OC)c1 [YK131, (E)-N-(3-(4,6-dimethoxy-2-(4-methylpiperazin-1-yl)pyrimidin-5-ylthio)phenyl)but-2-enamide] | 20.7 | 15 |  |  |
| CCC(=O)Nc1ccnc(Sc2c(C)nc(N3CCOCC3)nc2C)n1 [YK118, N-(2-(4,6-dimethyl-2-morpholinopyrimidin-5-ylthio)pyrimidin-4-yl)propionamide] | > 100 | > 100 |  |  |
| Cc1nc(N2CCN(C)CC2)nc(C)c1Sc1nccc(NC(=O)c2ccco2)n1 [YK89, N-(2-(4,6-dimethyl-2-(4-methylpiperazin-1-yl)pyrimidin-5-ylthio)pyrimidin-4-yl)furan-2-carboxamide] | 6.8 | 12 |  | 7.5 |
| COc1nc(N2CCOCC2)nc(OC)c1Sc1cccc(N)c1 [PDP2, 3-(4,6-dimethoxy-2-morpholinopyrimidin-5-ylthio)aniline] | > 100 | 79.7 |  |  |
| C=CC(=O)Nc1cccc(Sc2c(OC)nc(N3CCN(C)CC3)nc2OC)c1 [YK129, N-(3-(4,6-dimethoxy-2-(4-methylpiperazin-1-yl)pyrimidin-5-ylthio)phenyl)acrylamide] | 6.8 | 7.7 |  | 9.9 |
| COc1nc(N2CC[N+](C)([O-])CC2)nc(OC)c1Sc1nccc(NC(C)=O)n1 [YK75, 4-(5-(4-acetamidopyrimidin-2-ylthio)-4,6-dimethoxypyrimidin-2-yl)-1-methylpiperazine 1-oxide] | > 100 |  |  |  |
| CCC(=O)Nc1ccnc(Sc2c(C)nc(N3CCN(C)CC3)nc2C)n1 [YK86, N-(2-(4,6-dimethyl-2-(4-methylpiperazin-1-yl)pyrimidin-5-ylthio)pyrimidin-4-yl)propionamide] | 44.4 | 26.2 |  |  |
| C=CC(=O)Nc1ccnc(Sc2c(OC)nc(N3CCN(C)CC3)nc2OC)n1 [YK71, N-(2-(4,6-dimethoxy-2-(4-methylpiperazin-1-yl)pyrimidin-5-ylthio)pyrimidin-4-yl)acrylamide] | 1.2 | 0.8 |  |  |
| CCC(=O)Nc1cccc(Sc2c(OC)nc(N3CCN(CCOCCOCCOCCOC(=O)CCCCC4SCC5NC(=O)NC54)CC3)nc2OC)c1 (centres unmarked) [YK142, 2-(2-(2-(2-(4-(4,6-dimethoxy-5-(3-propionamidophenylthio)pyrimidin-2-yl)piperazin-1-yl)ethoxy)ethoxy)ethoxy)ethyl 5-(2-oxohexahydro-1H-thieno[3,4-d]imidazol-4-yl)pentanoate] | 47.9 |  |  |  |
| COc1nc(N2CCN(C)CC2)nc(OC)c1Sc1cccc(NC(=O)C2CC2)c1 [YK139, N-(3-(4,6-dimethoxy-2-(4-methylpiperazin-1-yl)pyrimidin-5-ylthio)phenyl)cyclopropanecarboxamide] | 7.7 | 8.9 |  | 7.9 |
| C=CC(=O)Nc1ccnc(Sc2c(C)nc(N3CCOCC3)nc2C)n1 [YK117, N-(2-(4,6-dimethyl-2-morpholinopyrimidin-5-ylthio)pyrimidin-4-yl)acrylamide] | 14.4 | 6.2 |  |  |
| CCC(=O)Nc1ccnc(Sc2c(OC)nc(N3CCCC3)nc2OC)n1 [YK106, N-(2-(4,6-dimethoxy-2-(pyrrolidin-1-yl)pyrimidin-5-ylthio)pyrimidin-4-yl)propionamide] | 99.5 | > 100 |  |  |
| C=CC(=O)Nc1ccnc(Sc2c(OC)nc(N3CCOCC3)nc2OC)n1 [YK73, N-(2-(4,6-dimethoxy-2-morpholinopyrimidin-5-ylthio)pyrimidin-4-yl)acrylamide] | 11.6 | 1.9 |  |  |
| C=C(C)C(=O)Nc1ccnc(Sc2c(C)nc(N3CCN(C)CC3)nc2C)n1 [YK88, N-(2-(4,6-dimethyl-2-(4-methylpiperazin-1-yl)pyrimidin-5-ylthio)pyrimidin-4-yl)methacrylamide] | 16.7 | 13.1 |  |  |
| Cc1nc(N2CCN(C)CC2)nc(C)c1Sc1nccc(NC(=O)C2CC2)n1 [YK90, N-(2-(4,6-dimethyl-2-(4-methylpiperazin-1-yl)pyrimidin-5-ylthio)pyrimidin-4-yl)cyclopropanecarboxamide] | 25.8 | 20.1 |  | 27.1 |

| SMILES | IC50 ([1]; Homo sapiens, SK-BR-3, 72 h) [µM] | IC50 ([2]; Homo sapiens, Kasumi 1, 72 h) [µM] | IC50 ([1]; 72 h) [µM] | IC50 ([2]; 72 h) [µM] |
| --- | --- | --- | --- | --- |
| C=CC(=O)Nc1ccnc(Sc2c(OC)nc(OC)nc2OC)n1 [YK76, N-(2-(2,4,6-trimethoxypyrimidin-5-ylthio)pyrimidin-4-yl)acrylamide] | 2.4 | 22.5 |  |  |
| CCC(=O)Nc1ccnc(Sc2c(OC)nc(OC)nc2OC)n1 [YK77, N-(2-(2,4,6-trimethoxypyrimidin-5-ylthio)pyrimidin-4-yl)propionamide] | 79.2 | 62.3 |  |  |
| C=CC(=O)Nc1ccnc(Sc2c(C)nc(N3CCN(C)CC3)nc2C)n1 [YK85, N-(2-(4,6-dimethyl-2-(4-methylpiperazin-1-yl)pyrimidin-5-ylthio)pyrimidin-4-yl)acrylamide] | 1.8 | 4.8 |  |  |
| CCC(=O)Nc1cccc(Sc2c(OC)nc(N3CCOCC3)nc2OC)c1 [PDP4, N-(3-(4,6-dimethoxy-2-morpholinopyrimidin-5-ylthio)phenyl)propionamide] | > 100 | > 100 |  |  |
| C=CC(=O)Nc1ccnc(Sc2c(OC)nc(N3CCCC3)nc2OC)n1 [YK74, N-(2-(4,6-dimethoxy-2-(pyrrolidin-1-yl)pyrimidin-5-ylthio)pyrimidin-4-yl)acrylamide] | 4.3 | 42.2 |  |  |
| C/C=C/C(=O)Nc1ccnc(Sc2c(C)nc(N3CCN(C)CC3)nc2C)n1 [YK87, (E)-N-(2-(4,6-dimethyl-2-(4-methylpiperazin-1-yl)pyrimidin-5-ylthio)pyrimidin-4-yl)but-2-enamide] |  | 16 |  |  |
| CCC(=O)Nc1cccc(Sc2c(OC)nc(N3CCN(C)CC3)nc2OC)c1 [YK130, N-(3-(4,6-dimethoxy-2-(4-methylpiperazin-1-yl)pyrimidin-5-ylthio)phenyl)propionamide] | 18.3 |  |  |  |
| COc1nc(N2CCCC2)nc(OC)c1Sc1nccc(NC(=O)C2CC2)n1 [YK110, N-(2-(4,6-dimethoxy-2-(pyrrolidin-1-yl)pyrimidin-5-ylthio)pyrimidin-4-yl)cyclopropanecarboxamide] | > 100 | > 100 |  |  |
| C=CC(=O)Nc1ccnc(Sc2c(OC)nc(N3CC[N+](C)([O-])CC3)nc2OC)n1 [YK80, 4-(5-(4-acrylamidopyrimidin-2-ylthio)-4,6-dimethoxypyrimidin-2-yl)-1-methylpiperazine 1-oxide] | 31.1 | > 100 |  |  |
| COc1nc(N2CCOCC2)nc(OC)c1Sc1cccc(NC(=O)C2CC2)c1 [PDP6, N-(3-(4,6-dimethoxy-2-morpholinopyrimidin-5-ylthio)phenyl)cyclopropanecarboxamide] | 9.9 |  |  |  |
| CCC(=O)Nc1cccc(Sc2c(OC)nc(N3CCN(CCOCCOCCOCCO)CC3)nc2OC)c1 [YK141, N-(3-(2-(4-(2-(2-(2-(2-hydroxyethoxy)ethoxy)ethoxy)ethyl)piperazin-1-yl)-4,6-dimethoxypyrimidin-5-ylthio)phenyl)propionamide] | 38.9 |  |  |  |
| C=C(C)C(=O)Nc1cccc(Sc2c(OC)nc(N3CCOCC3)nc2OC)c1 [PDP5, N-(3-(4,6-dimethoxy-2-morpholinopyrimidin-5-ylthio)phenyl)methacrylamide] | 18.1 |  |  |  |
| COCC(=O)Nc1ccnc(Sc2c(C)nc(N3CCOCC3)nc2C)n1 [YK123, N-(2-(4,6-dimethyl-2-morpholinopyrimidin-5-ylthio)pyrimidin-4-yl)-2-methoxyacetamide] | > 100 | 58.1 |  |  |
| CCC(=O)Nc1cccc(Sc2c(OC)nc(N)nc2OC)c1 [YK140, N-(3-(2-amino-4,6-dimethoxypyrimidin-5-ylthio)phenyl)propionamide] | 99.5 | 35.2 |  |  |
| CCCCCCCC(=O)Nc1cc(N)nc(Sc2c(OC)nc(N3CCN(CCO)CC3)nc2OC)n1 [YK21, N-(6-amino-2-(2-(4-(2-hydroxyethyl)piperazin-1-yl)-4,6-dimethoxypyrimidin-5-ylthio)pyrimidin-4-yl)octanamide] |  | 7.2 |  |  |
| COc1nc(N)nc(OC)c1Sc1nccc(NC(C)=O)n1 [YK61, N-(2-(2-amino-4,6-dimethoxypyrimidin-5-ylthio)pyrimidin-4-yl)acetamide] |  | 94.4 |  |  |
| COc1nc(N2CCN(C)CC2)nc(OC)c1Sc1nccc(NC(C)=O)n1 [YK63, N-(2-(4,6-dimethoxy-2-(4-methylpiperazin-1-yl)pyrimidin-5-ylthio)pyrimidin-4-yl)acetamide] |  | 11.2 |  |  |
